# Experiments:
# [1] = molecular target: Replicase polyprotein 1ab (Severe acute respiratory syndrome coronavirus 2) (UniProt P0DTD1); assay: Inhibition of SARS CoV-2 main protease at 10 uM relative to control
# [2] = molecular target: Replicase polyprotein 1ab (Severe acute respiratory syndrome coronavirus 2, UniProt P0DTD1); assay: (§1) Inhibition of SARS CoV-2 main protease
# SARS-CoV-2 [3] = assay: Antiviral activity against SARS-CoV-2; type: functional, organism-based; details: Severe acute respiratory syndrome coronavirus 2
# [4] = Cytotoxicity against HEK293-A cells assessed as reduction in cell viability by CCK-8 assay; type: toxicity, cell-based; details: human
# SARS-CoV-2 [5] = assay: Antiviral activity against wild type SARS-CoV-2 infected in Vero E6 cells assessed as inhibition of viral induced cytopathic effect incubated for 72 hrs by MTT assay; type: functional, organism-based; details: Severe acute respiratory syndrome coronavirus 2, Vero C1008, 72 h
# [6] = molecular target: Replicase polyprotein 1ab (Severe acute respiratory syndrome coronavirus 2) (UniProt P0DTD1); assay: Inhibition of SARS CoV-2 main protease at 50 uM relative to control
# [7] = molecular target: Replicase polyprotein 1ab (Severe acute respiratory syndrome coronavirus 2) (UniProt P0DTD1); assay: as §1
SMILES,inhibition [1],IC50 [2],further results
O=C(Nc1ccccc1)C1c2cccc[n+]2CC(=O)N1c1ccccc1 (centres undefined),84.3%,5.2 µM,
COc1ccc(NC(=O)C2c3cccc[n+]3CC(=O)N2c2ccccc2O)cc1 (centres undefined),26.5%,,
O=C(Nc1ccccc1)C1c2cccc[n+]2CC(=O)N1c1ccc(Br)cc1 (centres undefined),71.3%,8.6 µM,
CCOc1ccc(NC(=O)C2c3cccc[n+]3CC(=O)N2c2ccc(OC)cc2)cc1 (centres undefined),30%,,
Cc1cccc(C)c1NC(=O)C1c2cccc[n+]2CC(=O)N1Cc1ccc2c(c1)OCO2 (centres undefined),< 20%,,
O=C[C@H](C[C@@H]1CCNC1=O)NC(=O)[C@H](Cc1cccc(F)c1)NC(=O)c1cc2ccccc2[nH]1,,,EC50 (SARS-CoV-2 [3]): 0.72 µM
Cc1cccc(C)c1NC(=O)C1c2cccc[n+]2CC(=O)N1c1cccc(C(F)(F)F)c1 (centres undefined),< 20%,,
CCc1cccc(C)c1N1C(=O)C[n+]2ccccc2C1C(=O)Nc1ccccc1C (centres undefined),< 20%,,
CCOc1ccc(NC(=O)C2c3cccc[n+]3CC(=O)N2c2ccc(OCC)cc2)cc1 (centres undefined),21.7%,,
CCOc1ccc(N2C(=O)C[n+]3ccccc3C2C(=O)Nc2ccc(Cl)cc2)cc1 (centres undefined),47.2%,,
CC(C)(C)C(=O)N[C@H](C(=O)N1CC2(C[C@H]1C(=O)N[C@H](C#N)C[C@@H]1CCNC1=O)SCCS2)C(C)(C)C,,0.022 µM,EC50 (SARS-CoV-2 [3]): 0.57 µM
Cc1cc(C)cc(N2C(=O)C[n+]3ccccc3C2C(=O)Nc2ccc(Cl)cc2)c1 (centres undefined),75.7%,8.8 µM,
Cc1cccc(C)c1NC(=O)C1c2cccc[n+]2CC(=O)N1C (centres undefined),85.8%,8.3 µM,
Cc1ccc(N2C(=O)C[n+]3ccccc3C2C(=O)Nc2ccc(Cl)cc2)cc1Br (centres undefined),78.2%,4.5 µM,CC50 [4]: > 300 µM
Cc1ccc(N2C(=O)C[n+]3ccccc3C2(C)C(=O)Nc2ccc(Cl)cc2)cc1 (centres undefined),< 20%,,
Cc1cccc(C)c1NC(=O)C1c2cccc[n+]2CC(=O)N1c1cccc(Cl)c1 (centres undefined),31%,,
C=CCN1C(=O)C[n+]2ccccc2C1C(=O)Nc1c(C)cccc1C (centres undefined),< 20%,,
O=C(Nc1ccc(Cl)cc1)C1c2cccc[n+]2CC(=O)N1Cc1ccc2c(c1)OCO2 (centres undefined),72.5%,6.9 µM,CC50 [4]: > 300 µM
O=C(Nc1ccc(Cl)cc1)C1c2cccc[n+]2CC(=O)N1c1ccc(Cl)cc1 (centres undefined),75.7%,9.6 µM,
Cc1cc(C)cc(N2C(=O)C[n+]3ccccc3C2C(=O)Nc2ccccc2C)c1 (centres undefined),66.6%,,
CCN1C(=O)C[n+]2ccccc2C1C(=O)Nc1c(C)cccc1C (centres undefined),< 20%,,

SMILES,inhibition [1],IC50 [2],further results
Cc1cccc(C)c1NC(=O)C1c2cccc[n+]2CC(=O)N1c1ccc2c(c1)OCO2 (centres undefined),< 20%,,
O=C(NC1CCCC1)C(=O)[C@H](CC1CCNC1=O)NC(=O)[C@@H]1[C@H]2CCC[C@H]2CN1C(=O)[C@@H](NC(=O)C(F)(F)F)C1CCCCC1 (some centres undefined),,,EC50 (SARS-CoV-2 [5]): 0.095 µM
CCCN1C(=O)C[n+]2ccccc2C1C(=O)Nc1c(C)cccc1C (centres undefined),< 20%,,
CC1(C(=O)Nc2ccc(Cl)cc2)c2cccc[n+]2CC(=O)N1c1ccc(Cl)cc1 (centres undefined),< 20%,,
Cc1cccc(N2C(=O)C[n+]3ccccc3C2C(=O)Nc2ccccc2)c1 (centres undefined),80.5%,6.1 µM,inhibition [6]: > 50%; inhibition [7]: Dose-Dependent Effect
Cc1ccc(N2C(=O)C[n+]3ccccc3C2C(=O)Nc2ccccc2C)cc1 (centres undefined),83%,6.1 µM,
O=C(Nc1ccc(Cl)cc1)C1c2cccc[n+]2CC(=O)N1c1ccc(Br)cc1 (centres undefined),82.2%,8.5 µM,
Cc1ccccc1N1C(=O)C[n+]2ccccc2C1C(=O)Nc1ccccc1 (centres undefined),78.7%,5.6 µM,
Cc1cccc(C)c1NC(=O)C1c2cccc[n+]2CC(=O)N1c1ccc(Cl)cc1 (centres undefined),50.1%,,
Cc1ccccc1NC(=O)C1c2cccc[n+]2CC(=O)N1c1c(C)cccc1C (centres undefined),< 20%,,
O=C1C2C3C=CC(CO)(O3)C2C(=O)N1c1cc(C(F)(F)F)ccc1Cl (centres undefined),,4.4 µM,inhibition [6]: > 50%; inhibition [7]: Dose-Dependent Effect
Cc1ccccc1NC(=O)C1c2cccc[n+]2CC(=O)N1C (centres undefined),75.3%,4 µM,CC50 [4]: > 300 µM
CN1C(=O)C[n+]2ccccc2C1C(=O)Nc1ccccc1 (centres undefined),93.3%,8.9 µM,
COc1ccc(N2C(=O)C[n+]3ccccc3C2C(=O)Nc2ccc(Cl)cc2)cc1 (centres undefined),57.7%,,
Cc1cccc(C)c1NC(=O)C1c2cccc[n+]2CC(=O)N1CCO (centres undefined),< 20%,,
Cc1cccc(C)c1NC(=O)C1(C)c2cccc[n+]2CC(=O)N1c1ccc(Cl)cc1 (centres undefined),32.1%,,
O=C(Nc1ccc(Cl)cc1)C1c2cccc[n+]2CC(=O)N1c1cccc(Cl)c1 (centres undefined),84.5%,5.1 µM,
CCOc1ccc(NC(=O)C2c3cccc[n+]3CC(=O)N2c2ccccc2)cc1 (centres undefined),80.4%,5 µM,
COc1ccccc1N1C(=O)C[n+]2ccccc2C1C(=O)Nc1c(C)cccc1C (centres undefined),< 20%,,
Cc1ccc(N2C(=O)C[n+]3ccccc3C2C(=O)Nc2c(C)cccc2C)cc1Cl (centres undefined),< 20%,,

# — ChEMBL document CHEMBL5579788 (Bioorg Med Chem Lett, 2024)
